Reference: patent US20250188110A1, “SPECIFIC SMALL MOLECULE INHIBITORS THAT BLOCK KMT9 METHYLTRANSFERASE ACTIVITY AND FUNCTION” (ALBERT-LUDWIGS-UNIVERSITÄT FREIBURG, priority 2021, published 2025)

What was measured:
KMT9 [1] = target: T1, KMT9 (Homo sapiens, UniProt Q9Y5N5); test: KMT9 thermal shift assay (SyproOrange); type: binding; settings: ΔTm; 500 µM compound, 2 μM KMT9, 5X SO; read-out: Thermal shift
T1 sequence (Q9Y5N5 1-214): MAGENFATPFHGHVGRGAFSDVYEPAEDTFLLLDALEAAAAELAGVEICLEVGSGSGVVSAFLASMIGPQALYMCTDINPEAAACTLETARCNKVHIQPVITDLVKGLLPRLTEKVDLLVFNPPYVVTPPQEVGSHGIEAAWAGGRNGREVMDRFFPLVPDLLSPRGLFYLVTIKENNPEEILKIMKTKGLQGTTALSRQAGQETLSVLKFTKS
T1 sequence (Q9UI30 1-120 isoform Q9UI30-2 partner): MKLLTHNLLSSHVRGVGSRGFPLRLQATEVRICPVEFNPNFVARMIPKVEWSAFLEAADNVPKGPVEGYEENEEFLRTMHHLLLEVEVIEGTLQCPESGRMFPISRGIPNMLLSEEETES
Protocol: The assay was carried out in 96-well Hard-Shell PCR plates (Bio-Rad Laboratories Inc.). Assay buffer consisted of 50 mM BTP, 1 mM MgCl2 and 1 mM DTT at a pH of 8.5 (adjusted using 1 M HCl and 1 M NaOH). 20X inhibitor stock (in DMSO), 2X enzyme stock and 4X SyproOrange (SO) stock (both in assay buffer) were prepared. 1 μL of 20X compound, 4 μL of assay buffer, 10 μL of 2X KMT9 and 5 μL of 4X SO were pipetted. For the no-compound control, 20X inhibitor stock was replaced by DMSO. The final volume was 20 μL. The plate was spun down at 700 rpm for 1 min using a Hettich UNIVERSAL 320 centrifuge and incubated at 25° C., shaking at 600 rpm. After incubation, the plate was spun down for 1 min at 700 rpm and measurement was conducted using a CFX96 Touch Real-Time PCR Detection System (Bio-Rad Laboratories Inc.). The plate was equilibrated at 20° C. for 4 min and then heated stepwise at a rate of 1° C. per 15 s until 95° C. After every step, fluorescence was measured in FRET mode. Calculation of melting points was conducted by a Boltzman sigmoidal model using GraphPad Prism 7.0.
For the results of the thermal shift assay shown as “Thermal shift” in Table 1, “++++” represents a ΔTm of greater 20 K, “+++” represents a ΔTm of greater than 15 K and less than or equal to 20 K (15 K<ΔTm≤20 K); “++” represents a ΔTm of greater than 10 K and less than or equal to 15 K (10 K<ΔTm ≤ 15 K); “+” represents a ΔTm of equal to or less than 10 K (ΔTm≤10 K).

KMT9 [2] = target: T1, KMT9; test: Microscale thermophoresis (MST) KMT9 binding; settings: microscale thermophoresis, His-tag labelled KMT9 (20 nM); read-out: MST
Protocol: To determine the binding affinity of the compounds according to the present invention and KMT9, microscale thermophoresis (MST) analysis was performed with a NanoTemper Monolith NT.115 instrument (NanoTemper Technologies GmbH). KMT9 was labelled with a RED-Tris-NTA labelling kit (NanoTemper Technologies GmbH) based on the manufacturer's instructions. Buffer including 25 mM HEPES (pH 7.5), 100 mM NaCl, 1 mM DTT and 0.05% Tween was used for the reaction buffer. Varying concentrations of the tested compounds of formula (I) as indicated in Table 1 were titrated against His-tag labelled KMT9 proteins (20 nM). Samples were loaded into standard Capillaries (NanoTemper Technologies GmbH) and MST measurements were performed using 40% MST power and 100% LED power. For each set of binding experiments, MST measurement was carried out with Binding Affinity module in MO.Control program under Nano-RED Excitation. Datasets were processed with the MO.Affinity Analysis software (NanoTemper Technologies GmbH).
For the results of the microscale thermophoresis (MST) assay shown as “MST” in Table 1, “A” represents a Kd of equal to or less than 10 nM (Kd≤10 nM); “B” represents a Kd of greater than 10 nM and equal to or less than 100 nM (10 nM<Kd<100 nM); “C” represents a Kd of greater than 100 nM and equal to or less than 1000 nM (100 nM<Kd ≤ 1000 nM); “D” represents a Kd of greater than 1000 nM (1000 nM<Kd).

KMT9 [3] = target: T1, KMT9; test: KMT9 methyltransferase inhibition assay, 3H-SAM scintillation (entries 1-154); type: biochemical; settings: entries 1-154: 3H-SAM assay, 25 nM KMT9, 5 μM ETF1
Protocol: The assay was carried out in 0.5 mL Eppendorf tubes in duplicates. Assay buffer consisted of 50 mM BTP, 1 mM MgCl2, 1 mM DTT and 0.01% Triton-X^100 at a pH of 8.5 (adjusted using 1 M HCl and 1 M NaOH). 20X inhibitor stock (in DMSO), 2X enzyme stock and 4X substrate mix (both in assay buffer) were prepared. The substrate mix consisted of Tritium-labelled S-adenosylmethionine (3H-SAM), S-adenosylmethionine (SAM) and eukaryotic peptide chain release factor subunit1 (Homo sapiens, residues 140-275)(ETF1). Final assay concentrations were set to 25 nM KMT9, 0.3 μM 3H-SAM, 0.7 µM SAM and 5 μM ETF1. […] 5 μL of 4x substrate mix was added to initiate the reaction. The final reaction volume was 20 μL. For the positive control, the compound of formula (I) was replaced by DMSO; for the negative control, the compound of formula (I) was replaced by DMSO and KMT9 was replaced by assay buffer. The reaction mix was incubated in an Eppendorf thermomixer comfort at 30° C. for 2 h, shaking at 300 rpm. The reaction was quenched using 5 μL 50% trichloroacetic acid (TCA) and incubated at 25° C. for 5 minutes. 22 μL of the mixture was transferred into 96-well MultiScreen@HTS FB filter plates (Merck KGaA, Darmstadt, Germany) and washed four times with 10% TCA and two times with 100% ethanol. The plate was dried overnight, the filters were transferred into individual 6 mL Pony Vials (Perkin Elmer Inc, Waltham, MA, USA) and incubated in 3 mL of Ultima Gold scintillation cocktail (Perkin Elmer Inc, Waltham, MA, USA) for 30 minutes. The scintillation signal was measured for 3x 1 min using TriCarb 2910 TR (Perkin Elmer) scintillation counter in 3H CPM mode (LL: 0, UL: 18.6). Inhibition was calculated using the following formula: […]
With xc: signal of compound, Xpos: mean signal of positive control, Xneg: mean signal of negative control. Data fitting was carried out by GraphPad 7.0 using nonlinear fit ([Inhibitor]vs. response-variable slope (four parameters)).
For the results of the methyltransferase inhibition assay shown as “Inhibition” in Table 1, “I” represents an IC50 less than 0.1 μM, “II” represents an IC50 equal or higher than 0.1 μM and less than 1 μM, “III” represents an IC50 equal or higher than 1 µM and less than 10 µM and “IV” represents an IC50 equal or higher than 10 µM

| SMILES | ΔTm at 500 µM (KMT9 [1]) | Kd (KMT9 [2]) | IC50 (KMT9 [3]) |
| --- | --- | --- | --- |
| Nc1ncnc2c1ncn2[C@@H]1O[C@H](CNCCCNCc2ccc(OCc3ccccc3)cc2)[C@@H](O)[C@H]1O [321 (224), (2R,3R,4S,5R)-2-(6-amino-9H-purin-9-yl)-5-(((3-((4-(benzyloxy)benzyl)amino)propyl)amino)methyl)tetrahydrofuran-3 4-diol] | ≤ 10 °C | 100 to 1000 nM | > 10000 nM |
| Nc1ncnc2c1ncn2[C@@H]1O[C@H](CNCCCNCc2ccc3ccccc3c2)[C@@H](O)[C@H]1O [323 (226), (2R,3R,45,5R)-2-(6-amino-9H-purin-9-yl)-5-(((3-((naphthalen-2-ylmethyl)amino)propyl)amino)methyl)tetrahydrofuran-3,4-diol] | ≤ 10 °C | > 1000 nM | > 10000 nM |
| Nc1ncnc2c1ncn2[C@@H]1O[C@H](C(=O)NC2CCN(CCc3ccccc3)CC2)[C@@H](O)[C@H]1O [325 (228), (2S,3S,4R,5R)-5-(6-amino-9H-purin-9-yl)-3,4-dihydroxy-N-(1-phenethylpiperidin-4-yl) tetrahydrofuran-2-carboxamide] | ≤ 10 °C | > 1000 nM | > 10000 nM |
| CNc1ncnc2c1ccn2[C@@H]1C[C@H](Cn2ccnc2CCCNCCc2cccc(Oc3ccccc3)c2)[C@@H](O)[C@H]1O [326 (229), (1R,2S,3R,5R)-3-(4-(methylamino)-7H-pyrrolo[2,3-d]pyrimidin-7-yl)-5-((2-(3-((3-phenoxyphenethyl)amino)propyl)-1H-imidazol-1-yl)methyl) cyclopentane-1,2-diol] | ≤ 10 °C | > 1000 nM | > 10000 nM |
| CNc1ncnc2c1ccn2[C@@H]1C[C@H](CNCCCNCc2ccc(OCc3ccccc3)cc2)[C@@H](O)[C@H]1O [328 (232), (1S,2R,3R,5R)-3-(((3-((4-(benzyloxy)benzyl)amino)propyl)amino)methyl)-5-(4-(methylamino)-7H-pyrrolo[2,3-d]pyrimidin-7-yl) cyclopentane-1,2-diol] | ≤ 10 °C | > 1000 nM | > 10000 nM |
| CNc1ncnc2c1ccn2[C@@H]1C[C@H](CN(CCCNCCc2ccccc2)CC(F)(F)F)[C@@H](O)[C@H]1O [330 (234), (1R,2S,3R,5R)-3-(4-(methylamino)-7H-pyrrolo[2,3-d]pyrimidin-7-yl)-5-(((3-(phenethylamino)propyl)(2,2,2-trifluoroethyl)amino)methyl) cyclopentane-1,2-diol] | ≤ 10 °C | 100 to 1000 nM | > 10000 nM |
| CNc1ncnc2c1ccn2[C@@H]1C[C@H](CNCCCNCc2ccc(Oc3ccccc3)cc2)[C@@H](O)[C@H]1O [332 (236), (1R,2S,3R,5R)-3-(4-(methylamino)-7H-pyrrolo[2,3-d]pyrimidin-7-yl)-5-(((3-((4-phenoxybenzyl)amino)propyl)amino)methyl) cyclopentane-1,2-diol] | ≤ 10 °C | > 1000 nM | > 10000 nM |
| Nc1ncnc2c1c(Br)cn2[C@@H]1C[C@H](CNCCCNCCc2ccc(F)cc2F)[C@@H](O)[C@H]1O [334 (238), (1R,2S,3R,5R)-3-(4-amino-5-bromo-7H-pyrrolo[2,3-d]pyrimidin-7-yl)-5-(((3-((2,4-difluorophenethyl)amino)propyl)amino)methyl) cyclopentane-1,2-diol] | 15 to 20 °C | 10 to 100 nM | 100 to 1000 nM |
| Nc1ncnc2c1c(Br)cn2[C@@H]1C[C@H](CNCCCNCCc2ccc(C(F)(F)F)cc2)[C@@H](O)[C@H]1O [336 (240), (1R,2S,3R,5R)-3-(4-amino-5-bromo-7H-pyrrolo[2,3-d]pyrimidin-7-yl)-5-(((3-((4-(trifluoromethyl)phenethyl)amino)propyl)amino)methyl) cyclopentane-1,2-diol] | 15 to 20 °C | 100 to 1000 nM | 100 to 1000 nM |
| Nc1ncnc2c1c(Br)cn2[C@@H]1C[C@H](CNCCCNCCc2ccccc2F)[C@@H](O)[C@H]1O [338 (242), (1R,2S,3R,5R)-3-(4-amino-5-bromo-7H-pyrrolo[2,3-d]pyrimidin-7-yl)-5-(((3-((2-fluorophenethyl)amino)propyl)amino)methyl) cyclopentane-1,2-diol] | 15 to 20 °C | 10 to 100 nM | 100 to 1000 nM |
| Nc1ncnc2c1c(I)cn2[C@@H]1C[C@H](CNCCCNCCc2ccccc2)[C@@H](O)[C@H]1O [343 (246)] | 15 to 20 °C | 100 to 1000 nM | 100 to 1000 nM |
| Nc1ncnc2c1c(Br)cn2[C@@H]1C[C@H](CNCCCNCc2ccc(F)cc2)[C@@H](O)[C@H]1O [344 (248), (1R,2s,3R,5R)-3-(4-amino-5-bromo-7H-pyrrolo[2,3-d]pyrimidin-7-yl)-5-(((3-((4-fluorobenzyl)amino)propyl)amino)methyl) cyclopentane-1,2-diol] | 15 to 20 °C | 100 to 1000 nM | 100 to 1000 nM |
| CNc1ncnc2c1ccn2[C@@H]1C[C@H](C(=O)NCC2CCNCC2)[C@@H](O)[C@H]1O [346 (250), (1S,2R,3S,4R)-2,3-dihydroxy-4-(4-(methylamino)-7H-pyrrolo[2,3-d]pyrimidin-7-yl)-N-(piperidin-4-ylmethyl) cyclopentane-1-carboxamide] | ≤ 10 °C | > 1000 nM | > 10000 nM |
| CNc1ncnc2c1ccn2[C@@H]1C[C@H](C(=O)NCC2CCCNC2)[C@@H](O)[C@H]1O (stereo partly drawn) [348 (252), (1S,2R,3S,4R)-2,3-dihydroxy-4-(4-(methylamino)-7H-pyrrolo[2,3-d]pyrimidin-7-yl)-N-(piperidin-3-ylmethyl) cyclopentane-1-carboxamide] | ≤ 10 °C | > 1000 nM | > 10000 nM |
